Assay results: ChEMBL document CHEMBL4011594, “Discovery and optimization of 2-pyridinone aminal integrase strand transfer inhibitors for the treatment of HIV” (Bioorg Med Chem Lett, 2017)
In brackets after ≈: the same amount, converted by molar mass.

Experiments:
[1] = Aqueous solubility of the compound at pH 7; format: physicochemical
[2] = Aqueous solubility of the compound at pH 2; format: physicochemical
[3] = system: Human immunodeficiency virus 1; assay: Inhibition of wild-type HIV-1 integrase strand transfer activity assessed as reduction in viral replication in presence of 10% normal human serum
[4] = system: Human immunodeficiency virus 1; assay: Inhibition of HIV-1 integrase strand transfer activity assessed as reduction in viral replication in presence of 50% normal human serum
[5] = system: Human immunodeficiency virus type 1 integrase (Human immunodeficiency virus 1), Q7ZJM1 [N155H]; assay: Inhibition of HIV-1 integrase N155H mutant strand transfer activity assessed as reduction viral replication
[6] = system: Human immunodeficiency virus type 1 integrase (Human immunodeficiency virus 1), Q7ZJM1 [Q148K]; assay: Inhibition of HIV-1 integrase Q148K mutant strand transfer activity assessed as reduction in viral replication
[7] = system: Human immunodeficiency virus type 1 integrase (Human immunodeficiency virus 1), Q7ZJM1 [Q148R]; assay: Inhibition of HIV-1 integrase Q148R mutant strand transfer activity assessed as reduction in viral replication
[8] = Plasma protein binding in Beagle dog; format: ADME, cell-free, Canis lupus familiaris; conditions: read-out: PPB (converted)
[9] = Volume of distribution in Beagle dog at 0.5 mg/kg, iv or 1 mg/kg, po; format: ADME, organism-based, Canis lupus familiaris; conditions: in vivo
[10] = system: Human immunodeficiency virus type 1 integrase (Human immunodeficiency virus 1), Q7ZJM1 [G140S,Q148H]; assay: Inhibition of HIV-1 integrase G140S/Q148H double mutant strand transfer activity assessed as reduction in viral replication
[11] = Clearance in Beagle dog at 0.5 mg/kg, iv or 1 mg/kg, po; format: ADME, organism-based, Canis lupus familiaris; conditions: in vivo
[12] = system: Human immunodeficiency virus type 1 integrase (Human immunodeficiency virus 1), Q7ZJM1 [E92Q]; assay: Inhibition of HIV-1 integrase E92Q mutant strand transfer activity assessed as reduction in viral replication
[13] = Half life in Beagle dog at 0.5 mg/kg, iv or 1 mg/kg, po; format: ADME, organism-based, Canis lupus familiaris; conditions: in vivo
[14] = Oral bioavailability in Beagle dog at 1 mg/kg; format: ADME, organism-based, Canis lupus familiaris; conditions: in vivo
[15] = system: Human immunodeficiency virus type 1 integrase (Human immunodeficiency virus 1), Q7ZJM1 [Y143R]; assay: Inhibition of HIV-1 integrase Y143R mutant strand transfer activity assessed as reduction in viral replication

| solubility [1] [µM] | solubility [2] [µM] | IP [3] [nM] | IP [4] [nM] | SMILES | also measured |
| --- | --- | --- | --- | --- | --- |
| 59 (≈ 29.6 µg/mL) | 54 (≈ 27.1 µg/mL) | 33 | 197 | COCCN1C(=O)c2c3c(c(O)c(=O)n2C12CCC1CC12)C(=O)N(Cc1ccc(F)c(Cl)c1)CC3 (configuration not stated) |  |
| 107 (≈ 52.2 µg/mL) | 138 (≈ 67.3 µg/mL) | 48 | 274 | O=C1c2c(c3n(c(=O)c2O)C2(CCC4CC42)N(CCO)C3=O)CCN1Cc1ccc(F)c(Cl)c1 (configuration not stated) |  |
| 17 (≈ 9.84 µg/mL) | 33 (≈ 19.1 µg/mL) | 19 | 150 | CN(CCN1C(=O)c2c3c(c(O)c(=O)n2C12CCC1CC12)C(=O)N(Cc1ccc(F)c(Cl)c1)CC3)S(C)(=O)=O (configuration not stated) |  |
| < 6 | < 6 | 45 | 410 | COC(C)(C)CCN1C(=O)c2c3c(c(O)c(=O)n2C12CCC1CC12)C(=O)N(Cc1ccc(F)c(Cl)c1)CC3 (configuration not stated) |  |
| 12 (≈ 7.27 µg/mL) | 18 (≈ 10.9 µg/mL) | 13 | 65 | CN1CCN(CCN2C(=O)c3c4c(c(O)c(=O)n3C23CCC2CC23)C(=O)N(Cc2ccc(F)c(Cl)c2)CC4)S1(=O)=O (configuration not stated) |  |
|  |  | 40 | 130 | O=C1CC[C@@H](CN2C(=O)c3c4c(c(O)c(=O)n3C23CCC2CC23)C(=O)N(Cc2ccc(F)c(Cl)c2)CC4)N1 (some centres not stated) |  |
| 56 (≈ 32.7 µg/mL) | 136 (≈ 79.4 µg/mL) | 8 | 42 | CN1CC(=O)N(CCN2C(=O)c3c4c(c(O)c(=O)n3C23CCC2CC23)C(=O)N(Cc2ccc(F)c(Cl)c2)CC4)C1=O (configuration not stated) |  |
| < 2 | < 2 | 80 | 890 | O=C1c2c(c3n(c(=O)c2O)C2(CCC4CC42)N(CCN2C(=O)c4ccccc4C2=O)C3=O)CCN1Cc1ccc(F)c(Cl)c1 (configuration not stated) |  |
| 26 (≈ 13.4 µg/mL) | 46 (≈ 23.7 µg/mL) | 25 | 180 | CO[C@H](C)CN1C(=O)c2c3c(c(O)c(=O)n2C12CCC1CC12)C(=O)N(Cc1ccc(F)c(Cl)c1)CC3 (some centres not stated) |  |
| 63 (≈ 31.6 µg/mL) | 190 (≈ 95.4 µg/mL) | 7 | 33 | C[C@@H](O)CN1C(=O)c2c3c(c(O)c(=O)n2[C@@]12CC[C@H]1C[C@H]12)C(=O)N(Cc1ccc(F)c(Cl)c1)CC3 |  |
| < 4 | 11 (≈ 6.5 µg/mL) | 17 | 170 | O=C1c2c(c3n(c(=O)c2O)C2(CCC4CC42)N(CCN2CCCS2(=O)=O)C3=O)CCN1Cc1ccc(F)c(Cl)c1 (configuration not stated) |  |
| 54 (≈ 27.9 µg/mL) | 69 (≈ 35.6 µg/mL) | 15 | 120 | CCC(O)CN1C(=O)c2c3c(c(O)c(=O)n2C12CCC1CC12)C(=O)N(Cc1ccc(F)c(Cl)c1)CC3 (configuration not stated) |  |

Second part, the molecule before the results:

| SMILES | solubility [1] [µM] | solubility [2] [µM] | IP [3] [nM] | IP [4] [nM] | also measured |
| --- | --- | --- | --- | --- | --- |
| COc1ccnc2c1C1(CC2)NC(=O)c2c3c(c(O)c(=O)n21)C(=O)N(Cc1ccc(F)c(Cl)c1)CC3 (racemic) | 63 (≈ 32.2 µg/mL) | 190 (≈ 97.1 µg/mL) | 13 | 74 |  |
| Cc1cccc2c1CCC21NC(=O)c2c3c(c(O)c(=O)n21)C(=O)N(Cc1ccc(F)c(Cl)c1)CC3 (racemic) | < 2 | < 2 | 140 | 540 |  |
| N#Cc1cccc2c1[C@@]1(CC2)NC(=O)c2c3c(c(O)c(=O)n21)C(=O)N(Cc1ccc(F)c(Cl)c1)CC3 | 17 (≈ 8.58 µg/mL) | 10 (≈ 5.05 µg/mL) | 1300 | 4110 |  |
| O=C1c2c(c3n(c(=O)c2O)C2(CCC4CC42)N(CC2CCOCC2)C3=O)CCN1Cc1ccc(F)c(Cl)c1 (racemic) | 14 (≈ 7.59 µg/mL) | 44 (≈ 23.8 µg/mL) | 31 | 240 |  |
| O=C1NC2(Cc3ccccc3C2)n2c1c1c(c(O)c2=O)C(=O)N(Cc2ccc(F)c(Cl)c2)CC1 | < 3 | < 3 | 620 | 1800 |  |
| O=C1c2c(c3n(c(=O)c2O)C2(CCC4CC42)N(CCN2C(=O)CCC2=O)C3=O)CCN1Cc1ccc(F)c(Cl)c1 (configuration not stated) | 48 (≈ 27.3 µg/mL) | 89 (≈ 50.6 µg/mL) | 7 | 46 | IP [5]: 8 nM; IP [6]: 7 nM; IP [7]: 7 nM; fraction unbound [8]: 0.058; Vd [9]: 2.1 L/kg; IP [10]: 23 nM; clearance [11]: 7.3 mL/min/kg; IP [12]: 7 nM; half-life [13]: 6.6 h; bioavailability [14]: 4.5 to 5%; IP [15]: 11 nM |
| CO[C@@H](C)CN1C(=O)c2c3c(c(O)c(=O)n2C12CCC1CC12)C(=O)N(Cc1ccc(F)c(Cl)c1)CC3 (some centres not stated) | 23 (≈ 11.9 µg/mL) | 12 (≈ 6.19 µg/mL) | 28 | 210 |  |
| O=C1NC(C2CCCC2)n2c1c1c(c(O)c2=O)C(=O)N(Cc2ccc(F)c(Cl)c2)CC1 (racemic) | < 5 | 116 (≈ 51.7 µg/mL) | > 10000 | > 1000 |  |
| Cc1ccc2c(c1)C1(CC2)NC(=O)c2c3c(c(O)c(=O)n21)C(=O)N(Cc1ccc(F)c(Cl)c1)CC3 (racemic) | < 2 | < 2 | 45 | 230 |  |
| O=C1N[C@@]2(CC[C@@H]3C[C@@H]32)n2c1c1c(c(O)c2=O)C(=O)N(Cc2ccc(F)c(Cl)c2)CC1 | 32 (≈ 14.2 µg/mL) | 49 (≈ 21.7 µg/mL) | 16 | 88 |  |
| Cc1cccc2c1C1(CC2)NC(=O)c2c3c(c(O)c(=O)n21)C(=O)N(Cc1ccc(F)c(Cl)c1)CC3 (racemic) | < 2 | < 2 | 37 | 140 |  |
| O=C1NC2(CCc3ccccc32)n2c1c1c(c(O)c2=O)C(=O)N(Cc2ccc(F)c(Cl)c2)CC1 (racemic) | < 2 | < 2 | 27 | 190 |  |
| COc1cccc2c1[C@]1(CC2)NC(=O)c2c3c(c(O)c(=O)n21)C(=O)N(Cc1ccc(F)c(Cl)c1)CC3 | 5 (≈ 2.55 µg/mL) | < 2 | 4 | 22 |  |
| O=C(CN1C(=O)c2c3c(c(O)c(=O)n2C12CCC1CC12)C(=O)N(Cc1ccc(F)c(Cl)c1)CC3)N1CCOCC1 (configuration not stated) | 67 (≈ 38.3 µg/mL) | 151 (≈ 86.2 µg/mL) | 18 | 120 |  |
| Cc1ccc2c(c1)CCC21NC(=O)c2c3c(c(O)c(=O)n21)C(=O)N(Cc1ccc(F)c(Cl)c1)CC3 (racemic) | < 3 | < 3 | 59 | 240 |  |
| O=C1NC(C2CCC2)n2c1c1c(c(O)c2=O)C(=O)N(Cc2ccc(F)c(Cl)c2)CC1 (racemic) | 31 (≈ 13.4 µg/mL) | 40 (≈ 17.3 µg/mL) | 8340 | > 10000 |  |
| O=C1N[C@]2(CC[C@H]3C[C@H]32)n2c1c1c(c(O)c2=O)C(=O)N(Cc2ccc(F)c(Cl)c2)CC1 | 31 (≈ 13.8 µg/mL) | 30 to 50 (≈ 13.3 to 22.2 µg/mL) | 30 | 206 | IP [5]: 84 nM; IP [6]: 450 nM; IP [7]: 107 nM; Vd [9]: 0.1 L/kg; IP [10]: 491 nM; clearance [11]: 0.12 mL/min/kg; IP [12]: 210 nM; half-life [13]: 13 h; bioavailability [14]: 15%; IP [15]: 28 nM |
| CN1C(=O)c2c3c(c(O)c(=O)n2C12CCCCCC2)C(=O)N(Cc1ccc(F)c(Cl)c1)CC3 | < 5 | < 5 | 1100 | 4800 |  |
| CC1CCC2(C1)NC(=O)c1c3c(c(O)c(=O)n12)C(=O)N(Cc1ccc(F)c(Cl)c1)CC3 (racemic) | < 5 | < 5 | 110 | 700 |  |
| O=C1NC2(CCCC2)n2c1c1c(c(O)c2=O)C(=O)N(Cc2ccc(F)c(Cl)c2)CC1 | 10 (≈ 4.32 µg/mL) | < 5 | 100 | 1600 |  |
| COCC(O)CN1C(=O)c2c3c(c(O)c(=O)n2C12CCC1CC12)C(=O)N(Cc1ccc(F)c(Cl)c1)CC3 (configuration not stated) | 123 (≈ 65.4 µg/mL) | 157 (≈ 83.5 µg/mL) | 16 | 130 |  |
| O=C1c2c(c3n(c(=O)c2O)[C@@H](C2CC2)N(C2CC2)C3=O)CCN1Cc1ccc(F)c(Cl)c1 | 34 (≈ 15.6 µg/mL) | 40 (≈ 18.3 µg/mL) | 95 | 1730 | IP [5]: 271 nM; IP [6]: 820 nM; IP [7]: 1010 nM; fraction unbound [8]: 0.024; Vd [9]: 0.7 L/kg; IP [10]: 1540 nM; clearance [11]: 1.4 mL/min/kg; IP [12]: 123 nM; half-life [13]: 7.5 h; bioavailability [14]: 44%; IP [15]: 142 nM |
| CN1C(=O)c2c3c(c(O)c(=O)n2C12CCC2)C(=O)N(Cc1ccc(F)c(Cl)c1)CC3 | < 5 | < 5 | 210 | 900 |  |
| C[C@H](O)CN1C(=O)c2c3c(c(O)c(=O)n2[C@@]12CC[C@H]1C[C@H]12)C(=O)N(Cc1ccc(F)c(Cl)c1)CC3 | 98 (≈ 49.2 µg/mL) | 125 (≈ 62.7 µg/mL) | 8 | 44 | IP [5]: 11 nM; IP [6]: 10 nM; IP [7]: 10 nM; fraction unbound [8]: 0.025; Vd [9]: 0.5 L/kg; IP [10]: 27 nM; clearance [11]: 2.9 mL/min/kg; IP [12]: 10 nM; half-life [13]: 6 h; bioavailability [14]: 42%; IP [15]: 11 nM |
| COc1nccc2c1C1(CC2)NC(=O)c2c3c(c(O)c(=O)n21)C(=O)N(Cc1ccc(F)c(Cl)c1)CC3 (racemic) |  |  | 493 | 1940 |  |
